# Reference: ChEMBL document CHEMBL4052780, “Novel 1,2-dihydroquinazolin-2-ones: Design, synthesis, and biological evaluation against Trypanosoma brucei” (Bioorg Med Chem Lett, 2017)
# Assays:
# [1] = tested on: THP-1; assay: Cytotoxicity against human THP1 cells assessed as reduction in cell viability after 72 hrs by MTT assay; type: cell-based; details: THP-1, 72 h
# [2] = tested on: Leishmania donovani; assay: Antileishmanial activity against intracellular […] stage of Leishmania donovani MHOM/ET/67/HU3 infected in human THP1 cells measured after 72 hrs by luciferase reporter gene assay; type: functional, cell-based; details: MHOM/ET/67/HU3, THP-1, 72 h
# [3] = tested on: Trypanosoma cruzi; assay: Antitrypanosomal activity against Trypanosoma cruzi Tulahuen C4 amastigotes infected in rat L6 cells after 96 hrs by beta-galactosidase reporter gene assay; type: functional, cell-based; details: Tulahuen C4, L6, 96 h
# [4] = tested on: Trypanosoma brucei brucei; assay: Antitrypanosomal activity against bloodstream form of Trypanosoma brucei brucei Lister 427 after 72 hrs by resazurin based fluorescence assay; type: functional; details: Lister 427, 72 h
# [5] = Cytotoxicity against human MRC5 SV2 cells after 48 hrs by resazurin based fluorescence assay; type: cell-based; details: MRC-5 SV2, 48 h
# [6] = tested on: L6; assay: Cytotoxicity against rat L6 cells assessed as reduction in cell viability after 72 hrs by resazurin based fluorescence assay; details: L6, 72 h
# [7] = Kinetic aqueous solubility of the compound by CLND method; type: physicochemical; details: read-out: Kinetic_solubility
# [8] = Lipophilicity, log D of the compound at pH 7.4; type: physicochemical; details: buffer
# [9] = Intrinsic clearance in rat hepatocytes assessed per million cells; type: ADME, cell-based, Hepatocyte
# [10] = tested on: Liver; assay: Intrinsic clearance in human liver microsomes; type: ADME, microsome
# [11] = tested on: Trypanosoma brucei brucei; assay: Antitrypanosomal activity against bloodstream form of Trypanosoma brucei brucei Lister 427 after 70 hrs by resazurin based fluorescence assay; type: functional; details: Lister 427, 70 h
Structure (SMILES),EC50 [1] [µM],EC50 [2] [µM],EC50 [3] [µM],EC50 [4] [µM],EC50 [5] [µM],EC50 [6] [µM],solubility kinetic [7] [µM],logD [8],CLH [9] [µL/min],CLH [10] [µL/min/mg],EC50 [11] [µM]
O=c1nc(-c2ccccc2)c2ccc(-c3ccncc3)cc2[nH]1,> 50,> 5,> 20,14.2,> 50,,,,,,
O=c1nc(-c2ccccc2)c2cc(-c3ccc(N4CCCC4)nc3)ccc2[nH]1,> 50,> 5,6.29,1.77,> 50,> 50,,,,,
O=c1nc(-c2ccccc2)c2ccc(-c3cncnc3)cc2[nH]1,> 50,> 5,> 20,> 40,> 50,,,,,,
Cc1ccc2[nH]c(=O)nc(-c3ccccc3)c2c1,> 50,> 5,> 20,> 40,> 50,> 50,80,,,,
Cn1ccc(-c2cccc3[nH]c(=O)nc(-c4ccccc4)c23)n1,> 50,> 5,> 20,> 40,> 50,> 50,,,,,
Cc1ccncc1-c1ccc2[nH]c(=O)nc(-c3ccccc3)c2c1,> 50,> 5,8.94,5.07,> 50,> 50,,,,,
N#Cc1ccc(-c2cccc3[nH]c(=O)nc(-c4ccccc4)c23)cc1,> 50,> 5,> 20,> 40,> 50,> 50,,,,,
O=c1nc(-c2ccccc2)c2cc(-c3ccccc3F)ccc2[nH]1,50,> 5,8.63,3.71,> 50,55.8,,,,,
O=c1nc(-c2ccccc2)c2cc(N3CCNCC3)ccc2[nH]1,> 25,> 2.5,> 10,> 20,> 25,> 25,> 1000,,,,
CN(C)c1ccc(-c2ccc3[nH]c(=O)nc(-c4ccccc4)c3c2)cn1,> 50,> 5,14,2.04,> 50,50,,,,,
COc1ccccc1-c1nc(=O)[nH]c2ccc(-c3cc[nH]n3)cc12,> 50,> 5,20,29,> 50,> 50,,,,,
O=c1nc(-c2ccccc2)c2ccc(-c3cccnc3)cc2[nH]1,> 50,> 5,> 20,> 40,> 50,7.73,,,,,
O=c1nc(-c2ccccc2)c2cc(-c3cccc(F)c3)ccc2[nH]1,> 50,> 5,9.48,4.29,> 50,23,,,,,
Cc1cc(-c2ccc3[nH]c(=O)nc(-c4ccccc4)c3c2)ccn1,> 50,> 5,16.8,5.32,> 50,> 50,,,,,
Cc1noc(C)c1-c1ccc2[nH]c(=O)nc(-c3ccccc3)c2c1,> 50,> 5,11.9,2.13,> 50,> 50,,,,,
Cc1ccccc1-c1nc(=O)[nH]c2ccc(-c3cc[nH]n3)cc12,> 50,> 5,5.28,3.14,> 50,> 50,13,,,,
CN1CCN(c2ccc3[nH]c(=O)nc(-c4ccccc4)c3c2)CC1,> 50,> 5,> 20,> 40,> 50,> 50,> 1000,,,,
O=c1nc(C2CCCCC2)c2cc(-c3cc[nH]n3)ccc2[nH]1,> 50,> 5,20,5.76,> 50,> 50,5,,,,
O=c1nc(-c2ccccc2)c2ccc(-c3ccc(F)cc3)cc2[nH]1,> 50,> 5,> 20,4.65,> 50,,,,,,
O=c1nc(-c2ccccc2)c2cc(-c3cn[nH]c3)ccc2[nH]1,> 50,> 5,8.33,1.44,22,> 50,,,,,

Structure (SMILES),EC50 [1] [µM],EC50 [2] [µM],EC50 [3] [µM],EC50 [4] [µM],EC50 [5] [µM],EC50 [6] [µM],solubility kinetic [7] [µM],logD [8],CLH [9] [µL/min],CLH [10] [µL/min/mg],EC50 [11] [µM]
Cc1ccc(-c2ccc3[nH]c(=O)nc(-c4ccccc4)c3c2)cn1,> 50,> 5,14.8,5.29,> 50,> 50,,,,,
O=c1nc(C2CCC2)c2cc(-c3cc[nH]n3)ccc2[nH]1,> 50,> 5,16.9,5.95,> 50,> 50,74,2.3,,,
O=c1nc(-c2ccccc2)c2cc(-c3cnc4ccccc4c3)ccc2[nH]1,> 50,> 5,7.19,1.73,> 50,> 16,,,,,
O=c1nc(-c2ccccc2)c2ccc(-c3cccc(N4CCOCC4)c3)cc2[nH]1,> 50,> 5,> 20,4.87,> 50,4.53,,,,,
O=c1nc(-c2ccccc2)c2cc(-c3cccc(N4CCOCC4)c3)ccc2[nH]1,> 50,> 5,15.1,5.17,> 50,> 50,,,,,
Cn1cc(-c2ccc3[nH]c(=O)nc(-c4ccccc4)c3c2)cn1,> 50,> 5,> 20,5.6,> 50,> 50,,,,,
O=c1nc(-c2ccccc2)c2cc(N3CCOCC3)ccc2[nH]1,> 50,> 5,> 20,14.1,> 50,> 50,324,,,,
O=c1nc(-c2ccccc2)c2cc(-c3ccccc3)ccc2[nH]1,> 50,> 5,> 20,4.88,> 50,> 50,,,,,
O=c1nc(-c2ccccc2)c2cc(-c3ccc(N4CCOCC4)cc3)ccc2[nH]1,> 50,> 5,8.3,2.17,23.8,22.7,,,,,
O=c1nc(-c2ccccc2)c2cc(-c3cccnc3)ccc2[nH]1,> 50,> 5,15.8,5.35,> 50,> 50,,,,,
O=c1nc(-c2ccccc2)c2cc(-c3ccc(C(F)(F)F)nc3)ccc2[nH]1,> 50,> 5,18.4,5.21,> 50,> 50,,,,,
Cn1nccc1-c1ccc2[nH]c(=O)nc(-c3ccccc3)c2c1,> 50,> 5,17.4,5.96,> 50,> 50,,,,,
N#Cc1ccc(-c2ccc3[nH]c(=O)nc(-c4ccccc4)c3c2)cc1,> 50,> 5,17.4,1.71,> 50,> 50,,,,,
O=c1nc(-c2ccccc2)c2cc(-c3cncnc3)ccc2[nH]1,> 50,> 5,> 20,10,> 50,> 50,,,,,
Cc1cncc(-c2ccc3[nH]c(=O)nc(-c4ccccc4)c3c2)c1,> 50,> 5,9.56,5.24,> 50,> 50,,,,,
O=c1nc(-c2ccccc2)c2cc(-c3cc[nH]n3)ccc2[nH]1,> 50,> 5,13.3,1.04,> 50,> 50,8,2.2,< 1,19,
O=c1nc(-c2ccccc2)c2cc(-c3ccc(F)cc3)ccc2[nH]1,> 50,> 5,8.73,3.88,> 50,50,,,,,
CNC(=O)c1cccc(-c2ccc3[nH]c(=O)nc(-c4ccccc4)c3c2)c1,> 50,> 5,> 20,5.7,> 50,> 50,,,,,
O=c1nc(-c2ccccc2)c2cc(-c3ccncc3)ccc2[nH]1,,> 5,10.9,1.89,> 50,> 50,,,,,0.84
